Values of other authors, collected in US9072693B2 (priority 2005, dated 2015).

What was measured:
women with PMS [1] = test system: women with PMS
psoriatic plaques = settings: topical (Lu et al. 1996)
women with PMS [2] = settings: higher doses once or twice during the luteal phase (Miner 2002)

For `O=C([O-])[O-].[Ca+2]` [calcium, calcium carbonate], the “reduction of overall PMS symptoms” value (women with PMS [1]; a number of studies, all 4 major categories of PMS) is given as 50% and the “overall reduction in total symptom scores compared to placebo” value (women with PMS [1]; elemental calcium 1200 mg per day as calcium carbonate, within 3 months of therapy, premenopausal women 18-45 years) is given as 48%.
In the case of `C=C1CC[C@H](O)C/C1=C/C=C1\CCC[C@]2(C)[C@@H]([C@H](C)CCCC(C)C)CC[C@@H]12` [cholecalciferol], the safety (10,000 IU daily for 5 months (Heaney)) is listed as “safe” and the “daily dose at which toxicity occurs” value (oral ingestion, daily (Vieth R)) is listed as 40,000 IU.
For `C=C1/C(=C\C=C2/CCC[C@]3(C)[C@@H]([C@H](C)CCCC(C)(C)O)CC[C@@H]23)C[C@@H](O)C[C@@H]1O` [Calcitriol], the “effect in psoriatic plaques” value (psoriatic plaques) is listed as “decrease keratinocyte proliferation, normalize keratinocyte differentiation and decrease immune activation in plaques”.
For `CNCCC(Oc1ccc(C(F)(F)F)cc1)c1ccccc1` (stereo not drawn) [fluoxetine], the “effect on PMS symptomatology” value (women with PMS [2]) is listed as “effective in reducing symptomatology”.
